SMILES strings stand for the structures.

In test [1] the test system is phosphorylation of MAPK and Akt in H1650-ER1, H1650-ER2 and H1650-ER4 cells. As to the kind of experiment: Western blot of MAPK and Akt phosphorylation, resistant clones. The note with it: for suppression of p-AKT and p-MAPK levels: resistant H1650-ER1 cells compared to parent H1650 cells. It is filed as cell-based, human. On the technique in general: Immunoblotting shows a protein as a band on a membrane.

In test [2] the target is EGFR kinase activity in H1650-ER1, H1650-ER2, H1650-ER4 cell lysates (Homo sapiens, UniProt P00533, DEL746-750).
Test [3] relates to EGFR kinase activity in H23 cell lysate (wild type EGFR). As to the kind of experiment: Hydrogel-based peptide array kinase assay, H23 cell lysate. It is filed as biochemical, human. As to conditions: 0-50 μM, compared with H1650.
Test [4] deals with H1650 cells. Description: Clonogenic assay, parental H1650. As to conditions: parental H1650, continuous exposure 10 μM and 50 μM, 15 days. Type of test: cell-based, human.
Test [5] concerns phosphorylation of MAPK and Akt in H1650 cells. As to the kind of experiment: Western blot of MAPK and Akt phosphorylation, parental H1650. Type of test: cell-based, human.
In test [6] the test system is H1650 cells. As to the kind of experiment: cells. The note with it: Homo sapiens, NCI-H1650, 48 h, read-out: IC50, cell proliferation/viability.
The test system of test [7] is erlotinib-resistant H1650 clones. Description: cells. As to conditions: Homo sapiens, NCI-H1650, 48 h, read-out: IC50, cell proliferation/viability.

For `CC#CC(=O)Nc1ccc2ncnc(Nc3cccc(Br)c3)c2c1` [CL-387,785], the “suppression of p-AKT and p-MAPK levels” value in test [1] is reported as “persistent activity”.

For `C[C@@H](Nc1ncnc2[nH]c(-c3ccc(O)cc3)cc12)c1ccccc1` [PKI-166], the IC50 in test [2] is more than 10 µM.

Regarding `C#Cc1cccc(Nc2ncnc3cc(OCCOC)c(OCCOC)cc23)c1` [erlotinib], the “effect on substrate phosphorylation by H23 lysate” value in test [3] was “much less effective”. For the same compound, in the test with H1650 cells [4], the colony formation result is listed as “very few colonies”. Moreover, the MAPK phosphorylation result was “attenuation in MAPK phosphorylation” in test [5] (parental H1650, 0, 1 and 10 μM for 5 hr, Western blot); “maintained” in test [1] (H1650-ER1, H1650-ER2, H1650-ER4, 0, 1 and 10 μM for 5 hr). Besides, the Akt phosphorylation entry in test [5] (parental H1650, Western blot) was “did not affect”; in test [1] (resistant clones), “did not affect”. Besides, in test [1], the “suppression of p-AKT and p-MAPK levels” value is on record as “reduced efficacy”. Also, the IC50 in the test with H1650 cells [6] is approximately 2.4 µM; in test [7], more than 20 µM.

(Values after paper PMC2946430 (Biosensors & bioelectronics, 2010).)
